Like-named read-outs stand apart in the source and are kept apart here. Starred links: 1 amine or outer side, 2 acyl side, 3 side chain; linkers in the order of their positions; H or OH if unused. Non-standard residues stand in square brackets, D forms with d. Residues, ends and D or L forms follow the SMILES beside them. Groups on a side chain read outwards from the residue. *: point of attachment. C18 diacid = O=C(O)CCCCCCCCCCCCCCCCC(=O)*; γGlu = O=C(O)[C@H](CCC(=O)[*:2])N[*:1]; εLys = N[C@@H](CCCCN[*:1])C(=O)[*:2]; AEEA = NCCOCCOCC(=O)O; Aib = CC(C)(N)C(=O)O
What was measured:
human GIP receptor = biological target: T1, human GIP receptor (Homo sapiens, UniProt P48546); test: In vitro functional potency, CRE luciferase reporter, whole BHK cells (hGIPR); assay type: cell-based; settings: BHK CRE luc2P hGIPR cells
T1 construct: expressed in transfected cells; host or cells: BHK (parent line BHKTS13), clone BHK CRE luc2P hGIPR
T1 sequence (P48546 22-466): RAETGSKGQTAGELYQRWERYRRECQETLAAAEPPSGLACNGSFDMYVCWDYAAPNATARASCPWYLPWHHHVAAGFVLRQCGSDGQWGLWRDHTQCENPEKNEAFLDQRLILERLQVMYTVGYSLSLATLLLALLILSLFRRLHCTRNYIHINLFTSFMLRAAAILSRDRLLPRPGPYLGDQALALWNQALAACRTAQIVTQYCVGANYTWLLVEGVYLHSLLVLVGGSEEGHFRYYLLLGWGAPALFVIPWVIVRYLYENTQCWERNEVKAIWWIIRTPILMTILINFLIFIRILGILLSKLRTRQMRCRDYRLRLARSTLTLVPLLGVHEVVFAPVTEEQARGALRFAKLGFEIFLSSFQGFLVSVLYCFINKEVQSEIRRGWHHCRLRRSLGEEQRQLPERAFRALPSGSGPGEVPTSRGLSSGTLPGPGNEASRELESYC
Method: (§1) The in vitro functional potency is the measure of target receptor activation in a whole cell assay.
(§2) In vitro functional potency was determined by measuring the response of the target receptor in a reporter gene assay in individual cell lines. […] When the respective receptor is activated, it results in the production of cAMP, which in turn results in expression of the luciferase protein. When assay incubation is completed, luciferase substrate (luciferin) is added resulting in the enzymatic conversion of luciferin to oxyluciferin and producing bioluminescence. The luminescence is measured as the readout for the assay.
(§3) The cells lines used in these assays were BHK cells with BHKTS13 as a parent cell line. The cell lines were derived from a clone containing the CRE luciferase element and were established by further transfection with the respective human receptor to obtain the relevant cell line: BHK CRE luc2P hGLP-1R or BHK CRE luc2P hGIPR. The cells were cultured at 37° C. with 5% CO2 in Cell Culture Medium. They were aliquoted and stored in liquid nitrogen. The cells were kept in continuous culture and were seeded out the day before each assay.
(§4) GLP-1R Cell Culture Medium consisted of DMEM medium with 10% FBS, 500 µg/mL G418, and 300 µg/mL hygromycin. GIPR Cell Culture Medium consisted of DMEM medium with 10% FBS, 400 µg/mL G418, and 300 µg/mL hygromycin. Assay Buffer consisted of DMEM w/o phenol red, 10 mM Hepes, 1× Glutamax. 1% ovalbumin, and 0.1% Pluronic F-68 with the addition of HSA at twice the final assay concentration.
(§5) 1) Cells were plated at 5000 cells/well and incubated overnight in the assay plate. 2) Cells were washed once in DPBS. 3) Stocks of the test compounds and reference compounds in concentrations ranging from […] were diluted 1:150 in Assay Buffer. Compounds were then diluted 1:10 in column 1 of a 96 deep well dilution plate and then carried across the row creating a 3.5 fold, 12 point dilution curve. 4) Assay Buffer (50 μl aliquot) with or without HSA was added to each well in the assay plate. 5) A 50 μl aliquot of compound or blank was transferred from the dilution plate to the assay plate containing the Assay Buffer with or without HSA. 6) The assay plate was incubated for 3 h in a 5% CO2 incubator at 37° C. 7) The cells were washed once with DPBS. 8) A 100 μl aliquot of DPBS was added to each well of the assay plate. 9) A 100 μl aliquot of steadylite plus reagent (light sensitive) was added to each well of the assay plate. 10) Each assay plate was covered with aluminum foil to protect it from light and shaken at 250 RPM for 30 min at room temperature. 11) Each assay plate was read in a microtiter plate reader.
(§6) The data from the microtiter plate reader was first regressed in an Excel in order to calculate the x-axis, log scale concentrations based on the individual test compound's stock concentration and the dilutions of the assay. […] The software performs a non-linear regression (log(agonist) vs response). A minimum of two replicates was measured for each sample. The reported values are averages of the replicates.

human GLP-1 receptor = human GLP-1 receptor (Homo sapiens, UniProt P43220); test: In vitro functional potency, CRE luciferase reporter, whole BHK cells (hGLP-1R); assay type: cell-based; set-up: expressed in transfected cells; host or cells: BHK (parent line BHKTS13), clone BHK CRE luc2P hGLP-1R; settings: BHK CRE luc2P hGLP-1R cells
Chain of human GLP-1 receptor (P43220 24-463): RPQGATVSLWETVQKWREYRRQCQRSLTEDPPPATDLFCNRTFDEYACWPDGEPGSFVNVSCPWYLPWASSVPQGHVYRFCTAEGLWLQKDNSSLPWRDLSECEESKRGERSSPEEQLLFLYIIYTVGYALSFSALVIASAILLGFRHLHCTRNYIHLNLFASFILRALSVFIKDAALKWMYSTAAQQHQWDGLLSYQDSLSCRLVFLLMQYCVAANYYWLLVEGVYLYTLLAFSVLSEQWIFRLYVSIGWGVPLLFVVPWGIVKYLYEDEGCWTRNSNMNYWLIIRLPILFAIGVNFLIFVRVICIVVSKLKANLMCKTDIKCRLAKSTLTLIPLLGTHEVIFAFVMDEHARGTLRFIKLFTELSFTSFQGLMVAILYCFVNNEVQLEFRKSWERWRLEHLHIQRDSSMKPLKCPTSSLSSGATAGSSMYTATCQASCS
Method: as §1, §2, §3, §4, §5, §6

[1] = 0% HSA, read-out: hGIPR, CRE Luc 0% HSA EC50
[2] = hGIPR, CRE Luc 1% HSA EC50, 1% HSA
[3] = 0% HSA, read-out: hGLP-1R, CRE Luc 0% HSA EC50
[4] = hGLP-1R, CRE Luc 1% HSA EC50, 1% HSA

| SMILES | EC50 (human GIP receptor; [1]) [nM] | EC50 (human GIP receptor; [2]) [nM] | EC50 (human GLP-1 receptor; [3]) [nM] | EC50 (human GLP-1 receptor; [4]) [nM] |
| --- | --- | --- | --- | --- |
| CC[C@H](C)[C@H](NC(=O)[C@H](Cc1ccccc1)NC(=O)[C@H](CCC(=O)O)NC(=O)[C@H](CCCNC(=N)N)NC(=O)[C@H](C)NC(=O)[C@H](C)NC(=O)[C@H](CCC(N)=O)NC(=O)[C@H](CCCCNC(=O)[C@@H](N)CCCCNC(=O)[C@@H](N)CCCCNC(=O)CC[C@H](NC(=O)CCCCCCCCCCCCCCCCC(=O)O)C(=O)O)NC(=O)[C@H](CCC(=O)O)NC(=O)[C@H](CC(C)C)NC(=O)[C@H](CC(C)C)NC(=O)[C@@H](NC(=O)[C@H](CO)NC(=O)[C@H](Cc1ccc(O)cc1)NC(=O)[C@H](CC(=O)O)NC(=O)[C@H](CO)NC(=O)[C@@H](NC(=O)[C@H](Cc1ccccc1)NC(=O)[C@@H](NC(=O)CNC(=O)[C@H](CCC(=O)O)NC(=O)C(C)(C)NC(=O)[C@@H](N)Cc1ccc(O)cc1)[C@@H](C)O)[C@@H](C)O)[C@@H](C)CC)C(=O)N[C@@H](CC(N)=O)C(=O)N[C@@H](Cc1c[nH]c2ccccc12)C(=O)N[C@@H](CC(C)C)C(=O)N[C@@H](CC(C)C)C(=O)N[C@@H](C)C(=O)NCC(=O)O [Compound 18] (H-Y[Aib]EGTFTSDYSILLEK([εLys-εLys-γGlu-C18 diacid])QAAREFINWLLAG-OH) | 0.0209 | 0.285 | 0.0197 | 0.226 |
| CC[C@H](C)[C@H](NC(=O)[C@H](Cc1ccccc1)NC(=O)[C@H](CCC(=O)O)NC(=O)[C@H](CCCNC(=N)N)NC(=O)[C@H](C)NC(=O)[C@H](C)NC(=O)[C@H](CCC(N)=O)NC(=O)[C@H](CCCCNC(=O)[C@@H](N)CCCCNC(=O)[C@@H](N)CCCCNC(=O)CC[C@H](NC(=O)CCCCCCCCCCCCCCCCC(=O)O)C(=O)O)NC(=O)[C@H](CCC(=O)O)NC(=O)[C@H](CC(C)C)NC(=O)[C@H](CC(C)C)NC(=O)[C@@H](NC(=O)[C@H](CO)NC(=O)[C@H](Cc1ccc(O)cc1)NC(=O)[C@H](CC(=O)O)NC(=O)[C@H](CO)NC(=O)[C@@H](NC(=O)[C@H](Cc1ccccc1)NC(=O)[C@@H](NC(=O)CNC(=O)[C@H](CCC(=O)O)NC(=O)C(C)(C)NC(=O)[C@@H](N)Cc1ccc(O)cc1)[C@@H](C)O)[C@@H](C)O)[C@@H](C)CC)C(=O)N[C@@H](CC(N)=O)C(=O)N[C@@H](Cc1c[nH]c2ccccc12)C(=O)N[C@@H](CC(C)C)C(=O)N[C@@H](CC(C)C)C(=O)N[C@@H](C)C(=O)NCC(=O)NCC(=O)N1CCC[C@H]1C(=O)O [Compound 19] (H-Y[Aib]EGTFTSDYSILLEK([εLys-εLys-γGlu-C18 diacid])QAAREFINWLLAGGP-OH) | 0.0065 | 0.275 | 0.0086 | 0.365 |
| CC[C@H](C)[C@H](NC(=O)[C@H](Cc1ccccc1)NC(=O)[C@H](CCC(=O)O)NC(=O)[C@H](CCCNC(=N)N)NC(=O)[C@H](C)NC(=O)[C@H](C)NC(=O)[C@H](CCCCNC(=O)[C@@H](N)CCCCNC(=O)[C@@H](N)CCCCNC(=O)CC[C@H](NC(=O)CCCCCCCCCCCCCCCCC(=O)O)C(=O)O)NC(=O)[C@H](CCC(=O)O)NC(=O)[C@H](CCC(=O)O)NC(=O)[C@H](CC(C)C)NC(=O)[C@H](Cc1ccc(O)cc1)NC(=O)[C@@H](NC(=O)[C@H](CO)NC(=O)[C@H](Cc1ccc(O)cc1)NC(=O)[C@H](CC(=O)O)NC(=O)[C@H](CO)NC(=O)[C@@H](NC(=O)[C@H](Cc1ccccc1)NC(=O)[C@@H](NC(=O)CNC(=O)[C@H](CCC(=O)O)NC(=O)C(C)(C)NC(=O)[C@@H](N)Cc1ccc(O)cc1)[C@@H](C)O)[C@@H](C)O)[C@@H](C)CC)C(=O)N[C@@H](CC(N)=O)C(=O)N[C@@H](Cc1c[nH]c2ccccc12)C(=O)N[C@@H](CC(C)C)C(=O)N[C@@H](CC(C)C)C(=O)N[C@@H](C)C(=O)NCC(=O)NCC(=O)N1CCC[C@H]1C(=O)N[C@@H](CO)C(=O)N[C@@H](CO)C(=O)NCC(=O)N[C@@H](C)C(=O)N1CCC[C@H]1C(=O)N1CCC[C@H]1C(=O)N1CCC[C@H]1C(=O)N[C@@H](CO)C(=O)O [Compound 38] (H-Y[Aib]EGTFTSDYSIYLEEK([εLys-εLys-γGlu-C18 diacid])AAREFINWLLAGGPSSGAPPPS-OH) | 0.0124 | 0.815 | 0.0031 | 0.259 |
| CC[C@H](C)[C@H](NC(=O)[C@H](Cc1ccccc1)NC(=O)[C@H](CCC(=O)O)NC(=O)[C@H](CCCNC(=N)N)NC(=O)[C@H](C)NC(=O)[C@H](C)NC(=O)[C@H](CCC(N)=O)NC(=O)[C@H](CCCCNC(=O)[C@@H](N)CCCCNC(=O)[C@@H](N)CCCCNC(=O)CC[C@H](NC(=O)CCCCCCCCCCCCCCCCC(=O)O)C(=O)O)NC(=O)[C@H](CCC(=O)O)NC(=O)[C@H](CC(C)C)NC(=O)[C@H](Cc1ccc(O)cc1)NC(=O)[C@@H](NC(=O)[C@H](CO)NC(=O)[C@H](Cc1ccc(O)cc1)NC(=O)[C@H](CC(=O)O)NC(=O)[C@H](CO)NC(=O)[C@@H](NC(=O)[C@H](Cc1ccccc1)NC(=O)[C@@H](NC(=O)CNC(=O)[C@H](CCC(=O)O)NC(=O)[C@H](C)NC(=O)[C@@H](N)Cc1ccc(O)cc1)[C@@H](C)O)[C@@H](C)O)[C@@H](C)CC)C(=O)N[C@@H](CC(N)=O)C(=O)N[C@@H](Cc1c[nH]c2ccccc12)C(=O)N[C@@H](CC(C)C)C(=O)N[C@@H](CC(C)C)C(=O)N[C@@H](C)C(=O)NCC(=O)NCC(=O)N1CCC[C@H]1C(=O)N[C@@H](CO)C(=O)N[C@@H](CO)C(=O)NCC(=O)N[C@@H](C)C(=O)N1CCC[C@H]1C(=O)N1CCC[C@H]1C(=O)N1CCC[C@H]1C(=O)N[C@@H](CO)C(=O)O [Compound 17] (H-YAEGTFTSDYSIYLEK([εLys-εLys-γGlu-C18 diacid])QAAREFINWLLAGGPSSGAPPPS-OH) | 0.0349 | 1.32 | 0.0052 | 0.257 |
| CC[C@H](C)[C@H](NC(=O)[C@H](Cc1ccccc1)NC(=O)[C@H](CCC(=O)O)NC(=O)[C@H](CCCNC(=N)N)NC(=O)[C@H](C)NC(=O)[C@H](C)NC(=O)[C@H](CCC(N)=O)NC(=O)[C@H](CCCCNC(=O)COCCOCCNC(=O)COCCOCCNC(=O)CC[C@H](NC(=O)CCCCCCCCCCCCCCCCC(=O)O)C(=O)O)NC(=O)[C@H](CCC(=O)O)NC(=O)[C@H](CC(C)C)NC(=O)[C@H](CC(C)C)NC(=O)[C@@H](NC(=O)[C@H](CO)NC(=O)[C@H](Cc1ccc(O)cc1)NC(=O)[C@H](CC(=O)O)NC(=O)[C@H](CO)NC(=O)[C@@H](NC(=O)[C@H](Cc1ccccc1)NC(=O)[C@@H](NC(=O)CNC(=O)[C@H](CCC(=O)O)NC(=O)C(C)(C)NC(=O)[C@@H](N)Cc1ccc(O)cc1)[C@@H](C)O)[C@@H](C)O)[C@@H](C)CC)C(=O)N[C@@H](CC(N)=O)C(=O)N[C@@H](Cc1c[nH]c2ccccc12)C(=O)N[C@@H](CC(C)C)C(=O)N[C@@H](CC(C)C)C(=O)N[C@@H](C)C(=O)NCC(=O)NCC(=O)N1CCC[C@H]1C(=O)N[C@@H](CO)C(=O)N[C@@H](CO)C(=O)NCC(=O)N[C@@H](C)C(=O)N1CCC[C@H]1C(=O)N1CCC[C@H]1C(=O)N1CCC[C@H]1C(=O)N[C@@H](CO)C(=O)O [Compound 35] (H-Y[Aib]EGTFTSDYSILLEK([AEEA-AEEA-γGlu-C18 diacid])QAAREFINWLLAGGPSSGAPPPS-OH) | 0.0052 | 0.303 | 0.003 | 0.413 |

— US20220177538A1, “CO-AGONISTS AT GLP-1 AND GIP RECEPTORS SUITABLE FOR ORAL DELIVERY” (Novo Nordisk A/S, priority 2020, published 2022)
